From patent publication US20240199625A1, “BICYCLIC HETEROCYCLIC FGFR4 INHIBITOR, PHARMACEUTICAL COMPOSITION AND PREPARATION COMPRISING SAME, AND APPLICATION THEREOF” (Hangzhou Apeloa Medicine Research Institute Co., Ltd., priority 2021, published 2024)
Like-named read-outs stand apart in the source and are kept apart here.

Columns and labels:
tyrosine kinase FGFR4 = tyrosine kinase FGFR4 (Homo sapiens (Human), UniProt P22455); assay: In vitro kinase test (HTRF), FGFR4; format: biochemical; conditions: for IC50: HTRF, 60 min preincubation, 40 min reaction at 37° C.; for FGFR1 IC50 / FGFR4 IC50 ratio (FGFR4 selectivity): ratio of the FGFR1 and FGFR4 IC50 values
Experimental: (§1) The effect of compounds of the present invention on tyrosine kinase FGFR1 and FGFR4 activity is evaluated by an in vitro kinase test. The method used in the test was homogeneous time-resolved fluorescence (HTRF).
(§2) Compound preparation: Add 45 μL of DMSO to 5 μL of stock solution at a concentration of 10 mM to prepare the solution LY2874455 at 1000 µM; then add 12 μL of the compound at 1000 μM to 88 µL of DMSO to prepare the solution LY2874455 at 120 μM as the starting concentration; add 48 μL of DMSO to 2 μL of stock solution at a concentration of 10 mM to prepare the solution BLU554 at 400 μM as the starting concentration; add 15 μL of DMSO to 10 μL of sample compound stock solution at a concentration of 10 mM to prepare a sample compound solution at 4 mM as the starting concentration; transfer the compound solution to the target plate with the dispenser Echo.
(§3) Kinase reaction: Add 5 μL of kinase solution to each well, incubate the compound and kinase at room temperature for 60 min, add 5 μL of substrate and ATP mixture to start reacting at 37° C. for a certain period of time (30 min for FGFR1 kinase test, and 40 min for FGFR4 kinase test), and then add 10 μL of X1665 and antibody detection reagent mixture to stop; after 60 min of incubation at room temperature, read the TR-FRET signal with microplate reader SPARK 10M at the transmit wavelength of 665 nm/612 nM. Test enzyme activity at 10 concentrations for each compound, and calculate the IC50 value of the compound with the data with the analysis software, as shown in Table 1.

[1] = system: human hepatoma cells Hep3B; assay: Cell proliferation test (CELL TITER-GLO); format: cell-based; conditions: 3 days incubation, CTG, read-out: IC50 Value of Compound for Hep3B Cells
Experimental: The effect of the compounds of the present invention on the proliferation of human hepatoma cells Hep3B is evaluated by an in vitro cell test. The method used in the test was CELL TITER-GLO (CTG).
Cell plating: Take Hep3B cells in the logarithmic growth phase, digest, centrifuge at 1,000 rpm for 5 min at room temperature and collect, resuspend with EMEM medium of 10% FBS and count, and inoculate into a 384-well microplate (#3765) at a density of 800 cells/well, 20 μL in each.
Compound preparation: Dissolve the compound in DMSO to prepare a stock solution at a concentration of 10 mM, dilute the sample compound stock solution to 2 mM with DMSO (6 μL of the stock solution plus 24 μL of DMSO) as the starting concentration, and dilute the control compound stock solution to 200 μM with DMSO (2 μL of the stock solution plus 98 μL of DMSO) as the starting concentration; dilute the compound 9 times with DMSO in gradient by 3 folds, and then dilute the compound to 40 times the final concentration dose with cell culture medium (2 μL of the compound plus 78 μL of […]).
Cell dosing: Add 5 μL (5×) of the compound to the corresponding wells, make sure the final concentrations of sample compounds are respectively 10000 nM, 3333 nM, 1111 nM, 370.37 nM, 123.46 nM, 41.15 nM, 13.72 nM, 4.57 nM, 1.52 nM, 0.50 nM, take 0.5% DMSO as the negative control, and incubate the microplate at 37° C. in 5% C02 for 3 days.
CTG detection: After 3 days of incubation, add 5 μL of Cell Titer-Glo® reagent per well, incubate on a shaker at 300 rpm for 60 min protected from light at room temperature, read the luminescence signals with microplate reader Spark 10M, and calculate the semi-inhibitory concentration of the compound on cell proliferation, that is, the IC50 value, with the analysis software, as shown in Table 2.

tyrosine kinase FGFR1 = tyrosine kinase FGFR1 (Homo sapiens (Human), UniProt P11362); assay: In vitro kinase test (HTRF), FGFR1; format: biochemical; conditions: 60 min preincubation, 30 min reaction at 37° C.
Experimental: as §1, §2, §3

tyrosine kinase FGFR4, sequence (P22455 22-802): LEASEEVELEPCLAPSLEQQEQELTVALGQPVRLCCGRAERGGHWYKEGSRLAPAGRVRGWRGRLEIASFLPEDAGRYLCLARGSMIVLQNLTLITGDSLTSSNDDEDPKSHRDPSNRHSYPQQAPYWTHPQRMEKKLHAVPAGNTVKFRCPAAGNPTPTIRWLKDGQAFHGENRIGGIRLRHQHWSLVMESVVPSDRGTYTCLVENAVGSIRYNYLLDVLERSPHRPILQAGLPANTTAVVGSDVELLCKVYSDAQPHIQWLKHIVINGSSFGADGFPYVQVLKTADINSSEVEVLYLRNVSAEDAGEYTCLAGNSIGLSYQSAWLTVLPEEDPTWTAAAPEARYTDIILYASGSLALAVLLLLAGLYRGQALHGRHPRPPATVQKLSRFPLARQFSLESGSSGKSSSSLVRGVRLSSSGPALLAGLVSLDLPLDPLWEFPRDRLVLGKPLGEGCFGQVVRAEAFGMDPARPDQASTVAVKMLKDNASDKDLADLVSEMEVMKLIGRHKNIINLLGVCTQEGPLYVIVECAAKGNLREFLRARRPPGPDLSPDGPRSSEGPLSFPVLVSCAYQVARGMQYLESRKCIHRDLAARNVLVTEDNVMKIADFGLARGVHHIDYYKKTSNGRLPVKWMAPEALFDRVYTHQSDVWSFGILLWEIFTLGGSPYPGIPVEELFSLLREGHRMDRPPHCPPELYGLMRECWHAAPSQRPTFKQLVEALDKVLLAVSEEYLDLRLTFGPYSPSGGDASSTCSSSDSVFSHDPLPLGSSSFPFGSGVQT
tyrosine kinase FGFR1, sequence (P11362 22-822): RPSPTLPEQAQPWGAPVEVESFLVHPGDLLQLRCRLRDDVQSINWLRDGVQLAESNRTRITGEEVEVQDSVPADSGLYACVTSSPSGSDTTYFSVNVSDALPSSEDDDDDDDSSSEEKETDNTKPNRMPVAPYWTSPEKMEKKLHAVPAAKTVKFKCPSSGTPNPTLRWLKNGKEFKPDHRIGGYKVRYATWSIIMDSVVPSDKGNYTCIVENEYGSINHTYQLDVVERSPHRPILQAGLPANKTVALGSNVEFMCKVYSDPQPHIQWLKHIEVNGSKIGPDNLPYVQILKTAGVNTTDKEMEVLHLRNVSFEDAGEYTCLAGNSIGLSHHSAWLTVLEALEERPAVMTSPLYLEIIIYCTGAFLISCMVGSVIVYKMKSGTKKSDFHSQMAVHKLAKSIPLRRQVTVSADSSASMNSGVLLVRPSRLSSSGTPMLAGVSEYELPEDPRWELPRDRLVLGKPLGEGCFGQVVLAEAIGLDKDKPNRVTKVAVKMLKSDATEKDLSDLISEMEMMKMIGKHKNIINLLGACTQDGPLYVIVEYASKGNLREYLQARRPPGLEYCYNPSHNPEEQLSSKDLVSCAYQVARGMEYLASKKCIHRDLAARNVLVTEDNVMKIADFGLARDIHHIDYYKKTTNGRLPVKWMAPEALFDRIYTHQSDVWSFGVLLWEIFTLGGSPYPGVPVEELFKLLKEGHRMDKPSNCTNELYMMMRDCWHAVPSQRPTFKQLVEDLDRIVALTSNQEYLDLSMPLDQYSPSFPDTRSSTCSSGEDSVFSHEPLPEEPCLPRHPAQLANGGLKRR

Row | Structure (SMILES) | IC50 (tyrosine kinase FGFR4) | FGFR1 IC50 / FGFR4 IC50 ratio (FGFR4 selectivity) (tyrosine kinase FGFR4) | IC50 [1] | IC50 (tyrosine kinase FGFR1) | IC50 ([1]; Homo sapiens, Hep3B, 72 h)
1 | C=CC(=O)Nc1cc(N2CCOCC2C)ccc1Nc1cc2c(cn1)CN(c1c(F)c(OC)nc(OC)c1F)C(=O)C21CC1 (centres unmarked) [Compound 15, N-(2-((2′-(3,5-difluoro-2,6-dimethoxypyridine-4-yl)-3′-oxo-2′,3′-dihydro-1′H-spiro[cyclopropane-1,4′-[2,7]naphthyridine]-6′-yl)-amino)-5-(3-methomorpholinyl)phenyl)acrylamide] | 0.63 nM | 3617 | 15.3 nM | 2280 nM | –
2 | C=CC(=O)Nc1ccccc1Nc1cc2c(cn1)CN(c1c(F)c(OC)nc(OC)c1F)C(=O)C21CC1 [Compound 7, N-(2-((2′-(3,5-difluoro-2,6-dimethoxypyridine-4-yl)-3′-oxo-2′,3′-dihydro-1′H-spiro[cyclopropane-1,4′-[2,7]naphthol]-6′-yl)amino)phenyl)acrylamide] | 5.42 nM | 782 | – | 4240 nM | –
3 | C=CC(=O)NCc1cc2c(cn1)CN(c1c(F)c(OC)nc(OC)c1F)C(=O)C21CC1 [Compound 1, N-((2′-(3,5-difluoro-2,6-dimethoxypyridine-4-yl)-3′-oxo-2′,3′-dihydro-1′H-spiro[cyclopropane-1,4′-[2,7]naphthine]-6′-yl)methyl) acrylamide] | 8.57 nM | 426 | 52.6 nM | 3660 nM | –
4 | C=CC(=O)Nc1cc(N2CCC(N3CCOCC3)CC2)ccc1Nc1cc2c(cn1)CN(c1c(F)c(OC)nc(OC)c1F)C(=O)C21CC1 [Compound 5, N-(2-((2′-(3,5-difluoro-2,6-dimethoxypyridine-4-yl)-3′-oxo-2′,3′-dihydro-1′H-spiro[cyclopropane-1,4′-[2,7]naphthyridine]-6′-yl)-amino)-5-(4-morpholinopiperidin-1-yl)phenyl)acrylamide] | 0.3 nM | 20 | – | 6 nM | –
5 | C=CC(=O)Nc1cc(N2CCOCC2)c(F)cc1Nc1cc2c(cn1)CN(c1c(F)c(OC)nc(OC)c1F)C(=O)C21CC1 [Compound 14, N-(2-((2′-(3,5-difluoro-2,6-dimethoxypyridine-4-yl)-3′-oxo-2′,3′-dihydro-1′H-spiro[cyclopropane-1,4′-[2,7]naphthyridine]-6′-yl)-amino)-4-fluoro-5-morpholinophenyl)acrylamide] | 2.6 nM | 3817 | – | > 9930 nM | 38.1 nM
6 | C=CC(=O)N[C@H]1CCOC[C@H]1Nc1ncc2cc(-c3c(Cl)c(OC)cc(OC)c3Cl)ccc2n1 [BLU554, reference compound] | 5.98 nM | – | – | 624 nM | 38.4 nM
7 | C=CC(=O)Nc1cc(N2CCOCC2)ccc1Nc1cc2c(cn1)CN(c1c(F)c(OC)nc(OC)c1F)C(=O)C21CC1 [Compound 10, N-(2-((2′-(3,5-difluoro-2,6-dimethoxypyridine-4-yl)-3′-oxo-2′,3′-dihydro-1′H-spiro[cyclopropane-1,4′-[2,7]naphthyridine]-6′-yl)-amino)-5-morpholinophenyl) acrylamide] | 0.67 nM | 1468 | – | 984 nM | 14 nM
8 | C=CC(=O)Nc1cccc(C)c1Nc1cc2c(cn1)CN(c1c(F)c(OC)nc(OC)c1F)C(=O)C21CC1 [Compound 8, N-(2-((2′-(3,5-difluoro-2,6-dimethoxypyridine-4-yl)-3′-oxo-2′,3′-dihydro-1′H-spiro[cyclopropane-1,4′-[2,7]naphthyridine]-6′-yl)amino)-3-methylphenyl)acrylamide] | 2.7 nM | 3172 | – | 8570 nM | 56.5 nM
